In paper PMC9898749, “Cryo-EM structure of the plant nitrate transporter AtCLCa reveals characteristics of the anion-binding site and the ATP-binding pocket” (The Journal of Biological Chemistry, 2022):

B1: Arabidopsis thaliana CLCa (natural protein, UniProt P92941 1-775, looked up)
chain: MDEDGNLQISNSNYNGEEEGEDPENNTLNQPLLKRHRTLSSTPLALVGAKVSHIESLDYEINENDLFKHDWRSRSKAQVFQYIFLKWTLACLVGLFTGLIATLINLAVENIAGYKLLAVGYYIAQDRFWTGLMVFTGANLGLTLVATVLVVYFAPTAAGPGIPEIKAYLNGIDTPNMFGFTTMMVKIVGSIGAVAAGLDLGKEGPLVHIGSCIASLLGQGGPDNHRIKWRWLRYFNNDRDRRDLITCGSASGVCAAFRSPVGGVLFALEEVATWWRSALLWRTFFSTAVVVVVLRAFIEICNSGKCGLFGSGGLIMFDVSHVEVRYHAADIIPVTLIGVFGGILGSLYNHLLHKVLRLYNLINQKGKIHKVLLSLGVSLFTSVCLFGLPFLAECKPCDPSIDEICPTNGRSGNFKQFNCPNGYYNDLSTLLLTTNDDAVRNIFSSNTPNEFGMVSLWIFFGLYCILGLITFGIATPSGLFLPIILMGSAYGRMLGTAMGSYTNIDQGLYAVLGAASLMAGSMRMTVSLCVIFLELTNNLLLLPITMFVLLIAKTVGDSFNLSIYEIILHLKGLPFLEANPEPWMRNLTVGELNDAKPPVVTLNGVEKVANIVDVLRNTTHNAFPVLDGADQNTGTELHGLILRAHLVKVLKKRWFLNEKRRTEEWEVREKFTPVELAEREDNFDDVAITSSEMQLYVDLHPLTNTTPYTVVQSMSVAKALVLFRSVGLRHLLVVPKIQASGMSPVIGILTRQDLRAYNILQAFPHLDKHKSGKAR
notes: AtCLCa, Arabidopsis thaliana chloride channel protein CLC-a, nitrate/proton antiporter; NCBI NP_198905.1; full length (residues 1-775; modelled residues 53-626, 636-737, 744-766); A C-terminal 3C cleavage site stands between the protein and the strep tag; Copurified with endogenous Mg2+-ATP; purified in 150 mM sodium nitrate; also called AtCLCa; source: HEK293F cells, BacMam system, purified …

Legend:
[1] = molecular target: T1, AtCLCa (Arabidopsis thaliana, UniProt P92941); experiment: cryo-EM structure, […] Å; format: binding; details: 150 mM NaNO3; GDN detergent; pH 7.5; three anion sites (external, central, internal) in transport pathway; identity assigned from buffer; nitrates placed by docking overlapping EM densities
T1 construct: gene CLC-A; HEK293F (BacMam); purified in GDN; homodimer; modelled residues 53-626, 636-737, 744-766
T1 sequence (P92941 1-775): B1 chain

[2] = molecular target: the molecule itself; experiment: cryo-EM structure; AtCLCa 4.2 mg/ml in 20 mM Hepes pH 7.5, 150 mM NaNO3, 0.06% GDN; endogenous Mg2+-ATP bound; C2 symmetry imposed; 2.8 Å

Molecule	cryo-EM structure, 2.8 Å [1]	stoichiometry N [2]
O=[N+]([O-])O [nitrate]	The ions are most likely nitrate because we purified the protein in a buffer	
B1		2
